Data taken from article PMC7177638 (International Journal of Molecular Sciences, 2020).

Tests used:
[1] = Cyclic voltammetry, cathodic reduction potential in aqueous solution; type: physicochemical; conditions: values normalized vs. SCE; phosphate buffer pH 7.4, 5 mM NaCl, 5·10^−4 M complex, scan rate 0.020 V s^−1
Experimental: The electrochemical characterization of compounds 1–6, performed by using cyclic voltammetry (CV), was carried out with the aim of determining the cathodic reduction potentials in aqueous solution (Ep^c).
Cyclic voltammetry (CV) measurements were carried out with a potentiostat CHI 1230B (CH Instruments, Inc., Austin, TX, USA) in a standard three-electrode electrochemical cell. The working electrode was a glassy carbon (GC) electrode, the reference electrode was a KCl-saturated Ag/AgCl and the counter was a Pt sheet. The GC electrode was carefully polished with alumina powder, then rinsed with distilled water and dried, to obtain a reproducible surface for all the experiments. All the measurements, conducted in triplicate, were carried out in buffered aqueous solutions containing the Pt(IV) compound at a concentration of 5·10^−4 M in 10 mL phosphate buffer (PB, pH = 7.4, I = 0.1) and 5 mM NaCl as supporting electrolyte. A blank solution (without Pt(IV) complex) was also tested. All the peak potentials were measured with a scan rate of 0.020 V s^−1; the initial potential was chosen equal to the open-circuit potential and the scan direction was negative. All the CV plots were acquired after an equilibration time of 2 min in order to make the GC surface reproducible.

[2] = tested on: panel of human cancer cell lines (PSN-1, HCT-15, LoVo, A431, 2008); experiment: MTT cytotoxicity, average over the panel of human cancer cell lines; type: cell-based; conditions: 72 h
Experimental: The in vitro cytotoxic activities of compounds 1–6 were assayed on a panel of human cancer cell lines containing examples of pancreatic (PSN-1), colon (HCT-15 and LoVo), cervical (A431), and ovarian (2008) cancers. Cisplatin and oxaliplatin were used as reference compounds and were tested under the same experimental conditions.
[17, 30] Thus, the pharmacological activity decreases in the order 3 >> 1 ≈ 2 ≈ 4 > 5 > 6.
(§1) The growth inhibitory effect toward the tumor cell lines was evaluated by the MTT test. Briefly, 3-8·10^3 cells/well, depending upon the growth characteristics of the cell lines, were seeded in 96-well microplates in growth medium (100 µL) and then incubated at 37 °C in a 5% carbon dioxide atmosphere. After 24 h, the medium was removed and replaced with a fresh one containing the compound to be tested at the appropriate concentration. Triplicate cultures were established for each treatment. After 72 h, each well was treated with 10 µL of a 5 mg·mL^−1 MTT (3-(4,5-dimethylthiazol-2-yl)-2,5-diphenyltetrazolium bromide) saline solution and, after 5 h of incubation, 100 µL of a sodium dodecylsulfate (SDS) solution in HCl 0.01 M were added. Following an overnight incubation, the inhibition of cell growth induced by the tested complexes was evaluated by measuring the absorbance of each well at 570 nm using a Bio-Rad 680 microplate reader (Bio-Rad Laboratories S.r.l., Segrate (MI), Italy).

LoVo-OXP cancer cells = experiment: MTT cytotoxicity test, 72 h, oxaliplatin-resistant cells; type: cell-based, human; conditions: for IC50: LoVo OXP
Description: Human colon (HCT-15 and LoVo) and pancreatic (PSN-1) carcinoma cell lines were obtained from the American Type Culture Collection (ATCC, RocKville, MD). The 2008 human ovarian cancer cells were kindly provided by Prof. G. Marverti (Dept. of Biomedical Science of Modena University, Italy). Human cervical carcinoma (A431) cells were kindly provided by Prof. F. Zunino (Division of Experimental Oncology B, Istituto Nazionale dei Tumori, Milan, Italy). […] Cell lines were maintained in the logarithmic phase at 37 °C in a 5% carbon dioxide atmosphere using RPMI-1640 or F-12 culture medium (Euroclone) containing 10% fetal calf serum (Euroclone, Milan, Italy), antibiotics (50 units per mL penicillin and 50 μg mL^−1 streptomycin), and 2 mM L-glutamine.
as §1

[3] = Stability in solution followed by 1H-NMR (solvent-assisted photoreduction); type: physicochemical; conditions: DMSO-d6, room temperature, not shielded from light
Description: (5.4–6.5 ppm). Most likely, compound 4 underwent a solvent-assisted reduction process favored by light, as previously observed for similar compounds such as cis,trans,cis-[PtCl2(OH)2(cis-1,4-DACH)] [19, 20]. […] This reduction/solvation could also be observed in other solvents, such as D2O and CD3OD.
As for compound 4, the reduction is probably fostered by the presence of axial chlorido ligand(s).
The ^13C NMR signals are influenced by the asymmetry of the complex with respect to the equatorial plane with two peaks at 125.4 and 125.2 ppm for the vinylic carbons, two signals at 60.2 and 59.3 ppm for the methynic carbons, and two signals at 33.1 and 32.6 ppm for the methylenic carbons (Figure S10).

| Structure (SMILES) | Cathodic reduction potential Ep^c [1] | times more cytotoxic than the other Pt(IV) compounds of the series [2] | times more cytotoxic than the other Pt(IV) compounds of the series ([2]; listed as bis-benzoate derivative) | IC50 ([2]; mean over the cell line panel) | effectiveness against sensitive (LoVo) versus resistant (LoVo-OXP) cells (LoVo-OXP cancer cells) | IC50 (LoVo-OXP cancer cells) | stability in solution (reduction to Pt(II) / solvation) [3] |
| --- | --- | --- | --- | --- | --- | --- | --- |
| NC1CC=CCC1N.O=C([O-])C(=O)[O-].O=C([O-])c1ccccc1.O=C([O-])c1ccccc1.[Pt+4] (mixture of isomers) [Complex 3, cis,trans,cis-[Pt(OXA)(BzO)2(DACHEX)]] | −0.99 V | about five times more active | 5–8 | 260 nM | equally effective | 90 ± 20 nM | – |
| CC(=O)[O][Pt]1([Cl])[O]C(=O)C(=O)[O]1.NC1CC=CCC1N (racemic) [Complex 5, cis,trans,cis-[Pt(OXA)(AcO)Cl(DACHEX)]] | −0.82 V | – | – | – | – | > 2000 nM | shows a photo-assisted reduction accompanied by solvation |
| NC1CC=CCC1N.O=C1[O][Pt]([OH])([Cl])[O]C1=O (racemic) [Complex 6, cis,trans,cis-[Pt(OXA)(OH)Cl(DACHEX)]] | −0.48 V | – | – | – | – | > 2000 nM | underwent reduction followed by solvation |
